Holding throughout (format): binding
The target of experiment [1] is T1, BcChi-A (Gemmabryum coronatum, UniProt A9ZSX9, W126F).
T1 construct: gene bcchiA; recombinant, pET-22b in E. coli BL21(DE3); purified from cell lysate by acid treatment, Q-Sepharose, Sephacryl S-100; no tag mentioned; 15N-labelled for NMR; catalytic domain, loopless GH19
The experiment in a line: 1H-15N HSQC NMR titration, Asn20 chemical shift. The conditions noted are these: 50 mM sodium acetate pH 5.0, 90% H2O/10% D2O, 300 K; 0.2 mM 15N protein. From the text: (§1) 1H-15N HSQC NMR titration, Asn20 chemical shift on BcChi-A

Experiment [2] addresses T2, BcChi-A (Gemmabryum coronatum, UniProt A9ZSX9).
T2 construct: gene bcchiA; recombinant, pET-22b in E. coli BL21(DE3); purified from cell lysate by acid treatment, Q-Sepharose, Sephacryl S-100; no tag mentioned; 15N-labelled for NMR; catalytic domain, loopless GH19
Nature of the experiment: 1H-15N HSQC NMR titration, Asn20 chemical shift. The note with it: 50 mM sodium acetate pH 5.0, 90% H2O/10% D2O, 300 K; 0.2 mM 15N protein.
Description: as §1

The target of experiment [3] is T3, BcChi-A (Gemmabryum coronatum, UniProt A9ZSX9, W126A).
T3 construct: gene bcchiA; recombinant, pET-22b in E. coli BL21(DE3); purified from cell lysate by acid treatment, Q-Sepharose, Sephacryl S-100; no tag mentioned; 15N-labelled for NMR; catalytic domain, loopless GH19
T3 sequence (A9ZSX9 entry or part of it W126A): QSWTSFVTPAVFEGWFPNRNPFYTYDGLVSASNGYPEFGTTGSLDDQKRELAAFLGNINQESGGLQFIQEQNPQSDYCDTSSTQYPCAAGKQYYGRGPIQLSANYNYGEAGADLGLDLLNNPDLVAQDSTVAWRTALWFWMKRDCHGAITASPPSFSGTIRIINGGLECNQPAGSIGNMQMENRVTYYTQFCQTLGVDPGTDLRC
Nature of the experiment: 1H-15N HSQC NMR titration, Asn20 chemical shift. The note with it: 50 mM sodium acetate pH 5.0, 90% H2O/10% D2O, 300 K; 0.2 mM 15N protein.
Description: as §1

For experiment [4], the target named is T4, BcChi-A (Gemmabryum coronatum, UniProt A9ZSX9, E84Q/W126F).
T4 construct: gene bcchiA; recombinant, pET-22b in E. coli BL21(DE3); purified from cell lysate by acid treatment, Q-Sepharose, Sephacryl S-100; no tag mentioned; 15N-labelled for NMR; catalytic domain, loopless GH19
T4 sequence (A9ZSX9 entry or part of it E84Q/W126F): as the sequence (A9ZSX9 entry or part of it W126A) above, with E61Q, A103F counted along it
Nature of the experiment: 1H-15N HSQC NMR titration, Asn20 bound-state intensity (slow exchange). The note with it: 50 mM sodium acetate pH 5.0, 90% H2O/10% D2O, 300 K; 0.2 mM 15N protein; catalytically inactive mutant. From the text:
(§2) 1H-15N HSQC NMR titration, Asn20 bound-state intensity (slow exchange) on BcChi-A

Experiment [5] deals with T5, BcChi-A (Gemmabryum coronatum, UniProt A9ZSX9, E84Q).
T5 construct: gene bcchiA; recombinant, pET-22b in E. coli BL21(DE3); purified from cell lysate by acid treatment, Q-Sepharose, Sephacryl S-100; no tag mentioned; 15N-labelled for NMR; catalytic domain, loopless GH19
T5 sequence (A9ZSX9 entry or part of it E84Q): as the sequence (A9ZSX9 entry or part of it W126A) above, with E61Q, A103W counted along it
The experiment is described as above. The note with it: 50 mM sodium acetate pH 5.0, 90% H2O/10% D2O, 300 K; 0.2 mM 15N protein; catalytically inactive mutant.
Description: as §2

Experiment [6] concerns the target T6, BcChi-A (Gemmabryum coronatum, UniProt A9ZSX9, E84Q/W126A).
T6 construct: gene bcchiA; recombinant, pET-22b in E. coli BL21(DE3); purified from cell lysate by acid treatment, Q-Sepharose, Sephacryl S-100; no tag mentioned; 15N-labelled for NMR; catalytic domain, loopless GH19
The experiment is described as above. The conditions noted are these: 50 mM sodium acetate pH 5.0, 90% H2O/10% D2O, 300 K; 0.2 mM 15N protein; catalytically inactive mutant.
Description: as §2

As usually defined, the Kd is the equilibrium constant for the complex coming apart.

T6 sequence (A9ZSX9 entry or part of it E84Q/W126A): as the sequence (A9ZSX9 entry or part of it W126A) above, with E61Q counted along it
T1 sequence (A9ZSX9 entry or part of it W126F): as the sequence (A9ZSX9 entry or part of it W126A) above, with A103F counted along it
T2 sequence (A9ZSX9 entry or part of it): as the sequence (A9ZSX9 entry or part of it W126A) above, with A103W counted along it

Turning to `CC(=O)N[C@H]1[C@H](O[C@H]2[C@H](O)[C@@H](NC(C)=O)C(O)O[C@@H]2CO)O[C@H](CO)[C@@H](O)[C@@H]1O` (stereo partly drawn) [(GlcNAc)2], the equilibrium dissociation constant (Kd) on BcChi-A [1] was 22000 µM; on BcChi-A [2], 4200 µM; on BcChi-A [3], 24000 µM.

For the compound `CC(=O)N[C@H]1[C@H](O[C@H]2[C@H](O)[C@@H](NC(C)=O)[C@H](O[C@H]3[C@H](O)[C@@H](NC(C)=O)C(O)O[C@@H]3CO)O[C@@H]2CO)O[C@H](CO)[C@@H](O[C@@H]2O[C@H](CO)[C@@H](O[C@@H]3O[C@H](CO)[C@@H](O[C@@H]4O[C@H](CO)[C@@H](O)[C@H](O)[C@H]4NC(C)=O)[C@H](O)[C@H]3NC(C)=O)[C@H](O)[C@H]2NC(C)=O)[C@@H]1O` (stereo partly drawn) [(GlcNAc)6], the Kd at BcChi-A [4] was 1000 µM; on BcChi-A [5] it was 14 µM; at BcChi-A [6], 200 µM.

These data come from PMC7844276, “Multi-functionality of a tryptophan residue conserved in substrate-binding groove of GH19 chitinases” (Scientific Reports, 2021).
